Measurements taken from patent US4365076A, “Process for the preparation of cycloalkylidenemethylphenylacetic acid derivatives” (Sankyo Company Limited, priority 1977, dated 1982).

How the values were obtained:
[1] = test system: carrageenin-induced paw edema; experiment: Carrageenin Edema Test in Rats; type: in vivo, rat (male Wistar); conditions: for Inhibition %, Anti-inflammatory activity: Table I; for ED50: Rattus norvegicus, po, P.O., 30 minutes before carrageenin, edema 3 hours after, rats, Table II, read-out: Anti-inflammatory activity, Carrageenin Edema Test ID50
Method: (1) Carrageenin Edema Test in Rats
Inflammation was introduced by injection of 0.05 ml. of 1% carrageenin suspension into the plantar tissue of rat hind paw subcutaneously, by the method of Winter et al. in Proc. Soc. Exp. Biol. Med. 111, 544 (1962). Male Wistar rats weighing 120 to 150 g. which had fasted overnight received the test drug in aqueous tragacanth suspension orally 30 minutes before the carrageenin injection.
Paw edema was measured volumetrically, just before and 3 hours after the carrageenin injection, and R (response) was obtained by the following equation: R=(V-Vo)/Vo, where Vo and V represented the paw volumes 0 and 3 hours after carrageenin injection, respectively.
(§1) In order to get the regression line of H (% inhibition of the response) on D (dose of test drug), H in each animal was calculated from the ratio of the response to the mean response in non-medicated group. Then, the regression line and ID50 were obtained by the method of least squares. The confidence limits of ID50 was calculated using Fieller's Equation.

[2] = test system: adjuvant-induced arthritis; experiment: Adjuvant-induced Arthritis Test in Rats (Therapeutic Effect on Established Arthritis); type: in vivo, rat (female Lewis); conditions: Rattus norvegicus, po, 168 h, P.O., twice a day, 7 days (day 18 to 25), Table II, read-out: Anti-inflammatory activity, Adjuvant Arthritis Test ID50
Method: (2) Adjuvant-induced Arthritis Test in Rats
(Therapeutic Effect on Established Arthritis)
Female Lewis rats of 7-8 weeks old were injected intradermally in the hind paw with 0.05 mg. of heat-killed Mycobacterium butyricum in 0.05 ml. of liquid paraffin. Eighteen days after adjuvant injection, the well-established arthritic animals were selected and subjected to 7 days therapy with drug (twice a day orally). As the response, the volume of injected foot was measured by water displacement method at the beginning (day 18) and the end (day 25) of the therapy period.
as §1
In adjuvant arthritis, however, the ratio (RR) of responses after/before medication period was calculated first, where the response meant the swelled foot volume of the injected foot. Then, H in each animal was calculated from the ratio of RR to RRc, where RRc represented the mean RR is non-medicated group.

inflammatory pain = experiment: Thermal Pain Test in Rats (analgesic activity on inflammatory pain); type: in vivo, rat (male Wistar); conditions: for Inhibition %, Analgesic activity: Table I; for ED50: Rattus norvegicus, po, P.O., mean at 1 and 2 hours after drug, rats, Table II, read-out: Analgesic activity, Thermal Pain Test ID50
Method: II. ANALGESIC ACTIVITY ON INFLAMMATORY PAIN
Thermal Pain Test in Rats
The test was conducted according to the method reported by Y. Iizuka and K. Tanaka in Folia Pharmacol. Japan, 70, 697 (1974).
Under ether anesthesia, male Wistar rat of 5-7 weeks old received a standard heat injury at the hind paw by dipping it in hot water (57° C., 6 seconds). More than 1 hour later, the pain reaction could be evoked easily by another stimulatory heat (40° C., 5 seconds). Namely immediately after this treatment, the animal used to lift up the injured paw, presumably to avoid further pain which might be caused by touching it with the wire-netting of the cage.
Thus, the sum of duration time of the paw-lifting behavior was counted over a 30 seconds period and this was used as "pain reaction time." Drug was given orally 2 hours after the first application of heat and the mean value of "pain reaction time" at 1 and 2 hours after drug administration was used as the response.
as §1

LPS-induced fever = experiment: LPS-induced Fever Test in Guinea Pigs (antipyretic activity); type: in vivo, guinea pig (female Hartley); conditions: Cavia porcellus, po, P.O., 1.5 hours after LPS, mean at 1 and 2 hours after drug, Table II, read-out: Antipyretic activity, LPS-induced Fever Test ID50
Method: III. ANTIPYRETIC ACTIVITY
LPS-induced Fever Test in Guinea Pigs
Antipyretic activity was determined by a modified method of Kobayashi and Takagi in Jap. J. Pharmacol. 18, 80 (1968). Female Hartley guinea pigs weighing about 300 g. had fasted overnight and the fever was induced by injecting 1.0 μg/ml/kg LPS (product of Difco Laboratories, U.S.A., Lipo polysaccharide from Escherichia coli).
One hour after the injection, rectal temperature was measured and only the animals with fever between 0.8° C. and 1.2° C. were used for experiment.
Drugs were administered orally 1.5 hours after LPS injection, and the mean value of rectal temperature of each animal 1 and 2 hours after drug administration was used as the response.
as §1

Row | SMILES | Inhibition %, Anti-inflammatory activity ([1]; 6.3 mg/kg (P.O.)) [%] | ED50 [1] [mg/kg] | ED50 [2] [mg/kg] | Inhibition %, Analgesic activity (inflammatory pain; 6.3 mg/kg (P.O.)) [%] | ED50 (inflammatory pain) [mg/kg] | ED50 (LPS-induced fever) [mg/kg] | Inhibition %, Anti-inflammatory activity ([1]; (Control) 25 mg/kg (P.O.)) [%] | Inhibition %, Analgesic activity (inflammatory pain; (Control) 19 mg/kg (P.O.)) [%]
1 | CC(C(=O)O)c1ccc(C=C2CCCCC2=O)cc1 (stereo not shown) [2-[4-(2-Oxo-1-cyclohexylidenemethyl)phenyl]propionic acid] | 75.0 | 1.2 | 0.2 | 86.8 | 1.8 | 1.46 | – | –
2 | CC(C(=O)O)c1ccc(C=C2CCCC2=O)cc1 (stereo not shown) [2-[4-(2-Oxo-1-cyclopentylidenemethyl)phenyl]propionic acid] | 76.4 | 1.4 | 1.2 | 77.4 | 1.3 | 0.83 | – | –
3 | CCOC(=O)C(C)c1ccc(C=C2CCCCC2=O)cc1 (stereo not shown) [Ethyl 2-[4-(2-oxo-1-cyclohexylidenemethyl)phenyl]propionate] | 72.7 | – | – | 59.2 | – | – | – | –
4 | CCOC(=O)C(C)c1ccc(C=C2CCCC2=O)cc1 (stereo not shown) [Ethyl 2-[4-(2-oxo-1-cyclopentylidenemethyl)phenyl]propionate] | 85.0 | – | – | 50.5 | – | – | – | –
5 | CC(C)Cc1ccc(C(C)C(=O)O)cc1 (stereo not shown) [Ibuprofen, reference compound] | – | 10.8 | 104 | – | 17.8 | 1.26 | – | –
6 | CCCCC1C(=O)N(c2ccccc2)N(c2ccccc2)C1=O [Phenylbutazone, reference compound] | – | – | – | – | – | – | 30.6 | 37
